Experimental data reported in patent US11504425B2, “Amphiphilic oligodeoxynucleotide conjugates as adjuvant enhancers” (WAYNE STATE UNIVERSITY, priority 2019, dated 2022).
Entries after “also recorded” stand apart in the source; their conditions may differ. Oligonucleotides are written 5' to 3', each unit as a sugar letter and its base; * is a phosphorothioate linkage, no mark a phosphodiester; rarer units and linkages stand in square brackets, end groups in braces. Plain capitals give the bases only. {Lipid} = lipid portion of the amphiphilic conjugate (lipid variable, as described in specification); d = 2'-deoxy (DNA)

Legend:
[1] = system: TLR7-mediated NF-κB activation in Raw-Blue reporter cells; assay: Raw-Blue NF-κB/SEAP reporter stimulation with TLR7 ligands; format: cell-based, murine; conditions: for IMQ-induced NF-κB activation (SEAP) in the presence of the ODN: 2 μM IMQ + 1 μM ODN, FBS-supplemented medium
Protocol: (§1) HEK-Blue™-mTLR7, mTLR8, hTLR7, hTLR8, and RAW-Blue™ cells were purchased from InvivoGen and were used to evaluate bioactivities of lipo ODNs and TLR 7/8 ligands in vitro. All these cell lines were cultured with DMEM supplemented with 10% FBS, 1% P/S and 100 μg/mL Normocin at 37° C. with 5% CO2. […] After incubating for 24 h, SEAP levels were quantified by developing supernatants with QuantiBlue™ substrate for 1 h and reading absorption at 620 nm, following manufacturer's instructions.
Following subcutaneous injection, lipid-modified oligonucleotides efficiently accumulated in the draining lymph nodes by binding and trafficking with endogenous albumin protein (Liu et al., Nature 507, 519-522, 2014; Yu et al., Pharmaceutical Res. 35: 56, 2018). Inspired by that prior work, the current study was aimed to take advantage of lipid functionalization in other oligonucleotide-based TLR inhibitors to further expand the pool of lipo suppressive ODNs. The therapeutic efficacy of lipid-modified IRS 954 in suppressing TLR7-mediated immune activation and alleviating the severity of SLE was investigated. Imiquimod (IMQ; FIG. 1A) was first used to stimulate TLR7-mediated immune activation in Raw-Blue reporter cells. For the initial experiments, Raw Blue cells-a murine RAW 264.7 macrophage cell line which expresses secreted embryonic alkaline phosphatase (SEAP) under the control of an NF-κB and AP-1, were used. Raw Blue cells express many toll-like receptors, including TLR-7, TLR-8, and TLR-9. The immunosuppressive capability of unmodified or lipo IRS 954 was determined by quantifying the level of TLR7-induced NF-κB activation.

human TLR7 (hTLR7) = molecular target: T1, human TLR7 (hTLR7) (Homo sapiens, UniProt Q9NYK1); assay: HEK hTLR7 reporter cells NF-κB/SEAP; format: cell-based; conditions: 2 μM IMQ + 1 μM ODN, 24 h
T1 construct: host or cells: HEK-Blue-hTLR7 (HEK293)
T1 sequence (Q9NYK1 27-1049): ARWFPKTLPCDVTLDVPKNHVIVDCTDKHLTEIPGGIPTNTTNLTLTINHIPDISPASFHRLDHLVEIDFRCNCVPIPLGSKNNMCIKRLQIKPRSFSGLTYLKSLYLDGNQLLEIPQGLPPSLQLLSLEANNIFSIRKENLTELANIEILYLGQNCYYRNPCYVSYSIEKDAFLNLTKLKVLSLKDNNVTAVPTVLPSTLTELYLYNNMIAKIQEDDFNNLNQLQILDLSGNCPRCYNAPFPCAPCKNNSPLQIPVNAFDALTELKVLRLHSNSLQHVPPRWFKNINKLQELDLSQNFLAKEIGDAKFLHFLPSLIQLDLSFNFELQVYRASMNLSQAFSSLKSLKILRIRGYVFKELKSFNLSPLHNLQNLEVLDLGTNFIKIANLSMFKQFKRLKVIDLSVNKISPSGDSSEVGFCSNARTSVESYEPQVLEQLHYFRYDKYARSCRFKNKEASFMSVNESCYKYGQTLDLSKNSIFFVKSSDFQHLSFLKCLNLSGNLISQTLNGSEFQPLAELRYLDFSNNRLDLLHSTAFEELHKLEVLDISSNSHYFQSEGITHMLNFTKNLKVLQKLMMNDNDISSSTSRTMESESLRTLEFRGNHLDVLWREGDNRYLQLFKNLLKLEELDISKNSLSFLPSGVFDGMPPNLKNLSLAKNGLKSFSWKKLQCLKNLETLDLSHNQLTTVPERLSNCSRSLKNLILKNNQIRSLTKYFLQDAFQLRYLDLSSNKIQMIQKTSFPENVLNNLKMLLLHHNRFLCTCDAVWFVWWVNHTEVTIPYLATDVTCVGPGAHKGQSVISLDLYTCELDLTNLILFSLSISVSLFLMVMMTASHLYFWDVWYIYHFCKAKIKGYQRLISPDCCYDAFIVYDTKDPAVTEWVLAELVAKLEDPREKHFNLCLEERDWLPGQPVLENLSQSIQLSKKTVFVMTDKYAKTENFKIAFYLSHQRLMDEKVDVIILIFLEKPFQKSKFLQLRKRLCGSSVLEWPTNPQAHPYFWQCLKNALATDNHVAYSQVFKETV
Protocol: as §1
(§2) HEK293 cells transfected with human TLR7 or 8 were used. The cells were stimulated with IMQ in the presence of several inhibitory oligonucleotides reported in the literature. […] In contrast, all the unmodified ODNs maintained their inhibitory function, reducing the NF-κB secretion to basal levels (FIG. 8A). We then plotted the IMQ dose response curve in human TLR-7 transfected HEK293 cells.

human TLR8 (hTLR8) = molecular target: T2, human TLR8 (hTLR8) (Homo sapiens, UniProt Q9NR97); assay: HEK hTLR8 reporter cells NF-κB/SEAP; format: cell-based; conditions: 1 μg/ml or indicated concentrations TLR8-506 + 1 μM ODN, 24 h
T2 construct: host or cells: HEK-Blue-hTLR8 (HEK293)
T2 sequence (Q9NR97 27-1041): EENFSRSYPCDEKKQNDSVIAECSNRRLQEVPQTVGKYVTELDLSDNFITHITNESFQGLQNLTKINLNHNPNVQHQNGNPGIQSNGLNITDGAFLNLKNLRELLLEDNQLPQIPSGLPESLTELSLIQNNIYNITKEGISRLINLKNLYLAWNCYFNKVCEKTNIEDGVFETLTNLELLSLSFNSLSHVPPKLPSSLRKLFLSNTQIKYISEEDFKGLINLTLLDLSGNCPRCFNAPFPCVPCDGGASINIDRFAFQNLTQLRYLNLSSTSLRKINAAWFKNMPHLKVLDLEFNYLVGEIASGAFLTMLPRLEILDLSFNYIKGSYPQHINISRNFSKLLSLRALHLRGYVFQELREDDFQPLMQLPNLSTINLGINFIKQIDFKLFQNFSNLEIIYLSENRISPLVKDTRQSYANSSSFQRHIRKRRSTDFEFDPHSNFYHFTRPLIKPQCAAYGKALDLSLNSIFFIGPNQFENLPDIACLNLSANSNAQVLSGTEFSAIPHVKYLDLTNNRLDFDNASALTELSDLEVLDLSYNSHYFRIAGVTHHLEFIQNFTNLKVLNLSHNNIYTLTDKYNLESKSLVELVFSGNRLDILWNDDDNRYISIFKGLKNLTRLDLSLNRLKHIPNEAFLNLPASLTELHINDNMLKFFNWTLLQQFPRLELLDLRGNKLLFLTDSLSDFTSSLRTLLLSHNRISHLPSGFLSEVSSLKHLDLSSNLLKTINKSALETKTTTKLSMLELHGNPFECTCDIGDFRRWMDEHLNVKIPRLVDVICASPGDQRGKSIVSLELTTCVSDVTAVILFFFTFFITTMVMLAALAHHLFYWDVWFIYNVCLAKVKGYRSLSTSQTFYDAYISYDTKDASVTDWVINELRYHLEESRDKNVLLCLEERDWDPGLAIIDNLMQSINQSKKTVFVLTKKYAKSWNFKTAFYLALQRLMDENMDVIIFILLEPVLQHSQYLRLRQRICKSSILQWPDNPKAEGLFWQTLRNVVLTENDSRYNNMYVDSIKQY
Protocol: as §1, §2

mouse TLR7 (mTLR7) = molecular target: T3, mouse TLR7 (mTLR7) (Mus musculus, UniProt P58681); assay: HEK mTLR7 reporter cells NF-κB/SEAP; format: cell-based; conditions: soluble ligand alone, 24 h
T3 construct: host or cells: HEK-Blue-mTLR7 (HEK293)
T3 sequence (P58681 27-1050): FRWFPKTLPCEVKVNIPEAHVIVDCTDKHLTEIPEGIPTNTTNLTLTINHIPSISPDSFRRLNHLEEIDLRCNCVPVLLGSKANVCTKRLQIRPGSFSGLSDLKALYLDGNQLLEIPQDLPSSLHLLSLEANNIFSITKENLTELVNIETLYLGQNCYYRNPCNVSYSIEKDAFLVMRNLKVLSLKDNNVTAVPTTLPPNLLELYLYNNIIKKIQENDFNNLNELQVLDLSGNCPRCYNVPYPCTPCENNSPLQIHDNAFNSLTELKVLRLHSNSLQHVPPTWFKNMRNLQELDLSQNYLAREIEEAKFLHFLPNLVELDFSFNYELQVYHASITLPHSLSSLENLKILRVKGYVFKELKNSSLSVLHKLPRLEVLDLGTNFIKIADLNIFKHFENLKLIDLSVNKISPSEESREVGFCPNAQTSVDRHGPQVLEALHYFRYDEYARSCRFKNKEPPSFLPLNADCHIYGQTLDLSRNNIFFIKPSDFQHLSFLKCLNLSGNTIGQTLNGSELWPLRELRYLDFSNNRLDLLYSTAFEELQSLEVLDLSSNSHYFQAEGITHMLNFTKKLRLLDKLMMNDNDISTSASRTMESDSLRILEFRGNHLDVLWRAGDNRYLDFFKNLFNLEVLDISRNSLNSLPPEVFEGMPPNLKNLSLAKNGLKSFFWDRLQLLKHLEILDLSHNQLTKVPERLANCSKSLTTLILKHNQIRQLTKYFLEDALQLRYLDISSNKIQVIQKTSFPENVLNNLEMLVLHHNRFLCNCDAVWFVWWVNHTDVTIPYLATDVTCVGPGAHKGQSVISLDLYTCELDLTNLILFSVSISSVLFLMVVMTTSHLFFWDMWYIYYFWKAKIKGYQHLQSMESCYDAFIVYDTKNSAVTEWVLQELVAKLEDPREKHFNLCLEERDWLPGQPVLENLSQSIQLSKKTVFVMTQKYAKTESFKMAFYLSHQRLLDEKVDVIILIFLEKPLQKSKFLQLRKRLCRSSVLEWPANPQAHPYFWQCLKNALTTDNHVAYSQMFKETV
Protocol: as §1
Raw Blue cells which respond to both murine TLR-7 and TLR-8 are also included to assess the overall modulatory effect. half-maximal effective concentration (EC50) and potency of several classic TLR7/8 ligands were evaluated in murine TLR7 and TLR8 reporter cells.

Molecule | IMQ-induced NF-κB activation (SEAP) in the presence of the ODN ([1]; 24 h) | activity of the ODN alone in Raw Blue cells ([1]; without IMQ) | IMQ-mediated NF-κB stimulation in hTLR7 cells in the presence of the ODN (human TLR7 (hTLR7)) | TLR8-506 stimulation of hTLR8 cells in the presence of the ODN (human TLR8 (hTLR8)) | NF-κB activation of Raw Blue cells by the ligand alone ([1]; ligand alone, 24 h) | mTLR7 activation by the ligand alone (mouse TLR7 (mTLR7))
5′-L-TGCTCCTGGAGGGGTTGT-3′ (DNA NTGCTCCTGGAGGGGTTGT; 5' lipid modification; Lipid-modified synthetic oligonucleotide; (1)..(1) n=placeholder indicative of lipid portion of conjugate, as described in specification; lipid is variable, depending on embodiment(s)) [lipo IRS 954] | enhanced TLR7-mediated activation; also recorded: more than twofold increase in TLR-7-mediated activation | no activity | markedly enhanced IMQ-mediated NF-κB stimulation | partially inhibited the TLR-8 signaling |  | 
5′-TGCTCCTGGAGGGGTTGT-3′ (DNA dT*dG*dC*dT*dC*dC*dT*dG*dG*dA*dG*dG*dG*dG*dT*dT*dG*dT) [IRS 954] | no detectable NF-κB was observed |  |  |  |  | 
CC(C)Cn1cnc2c(N)nc3ccccc3c21 [IMQ, imiquimod] |  |  |  |  | resulted in secretion of NF-κB | activated mTLR-7 at different concentrations
lipo ODN 2087: lipid modified ODN 2087 (5′-TCCTGAGCTTGAAGT-3′) (DNA {Lipid}-dT*dC*dC*dT*dG*dA*dG*dC*dT*dT*dG*dA*dA*dG*dT) |  |  | markedly enhanced IMQ-mediated NF-κB stimulation | partially inhibited the TLR-8 signaling |  | 
